Measured values: paper PMC11641365, “Evaluation of In Vitro Biological Activity of Flavanone/Chromanone Derivatives: Molecular Analysis of Anticancer Mechanisms in Colorectal Cancer” (International Journal of Molecular Sciences, 2024)
Where two headings read alike, the source gives them in different places.

Key:
HCT 116 = test: MTT cell viability assay; assay type: cell-based; settings: Homo sapiens, 24 h incubation with compound, mean ± SD of three experiments, read-out: Cytotoxic effect, IC50
Method: (§1) The cytotoxic activity of the 3-benzylideneflavanones, 3-benzylidenechromanones derivatives (compounds 1, 2, 3, 4, 5) and 5′-(3-methoxyphenyl)-2-phenyl-4′,5′-dihydro-4H-spiro[chromano-3,3′-pirazol]-4-one (compound 3a) was evaluated using the MTT assay (4,5-dimethylthiazol-2-yl)-2,5-diphenyltetrazoliumbromide), a colorimetric method that quantifies cell viability.
(§2) Cell viability was determined using the metabolic microplate spectrophotometric assay with Methylthiazolyl diphenyltetrazolium bromide (MTT) (Sigma-Aldrich; St. Louis, MO, USA). The MTT method belongs to metabolic tests for determining cell viability and consists of measuring the absorbance of a violet solution of formazan, a product of the reduction of a water-soluble yellow MTT by oxidoreductive enzymes (mainly mitochondrial succinate dehydrogenase) of living cells. The amount of the reaction product (water-insoluble formazan crystals) is proportional to the number of living and metabolically active cells in the sample. In the case of damaged or dead cells, formazan is formed in smaller amounts, or it is not formed.
(§3) The appropriate number of cells for a given cell line (6–8 × 10^3 cells/mL) were seeded onto colorless, sterile 96-well microplates (Nunc, Roskilde, Denmark) in the number appropriate for a given cell line. After 24 h of culture, various concentrations of the studied compounds (10^−7–10^−5 M) freshly prepared in DMSO (final concentration DMS < 0.1%) and diluted with complete culture medium were added and incubated in a CO2 incubator for 24 h. After this time, the medium was removed; the cell monolayer was washed twice with sterile PBS solution; and fresh culture medium was added to the microplate wells. After 48 h of cell culture, the MTT test was performed. A volume of 50 μL of tetrazolium salt solution (final concentration 0.05 mg/mL) was added to each microplate well. The microplate was placed for 3–4 h (depending on the cell line) in a CO2 incubator. After incubation, 100 μL of DMSO was added to the wells of the microplate to dissolve the purple formazan crystals formed in the living cell environment. The absorbance of the formazan solution, after gentle mixing, was read at a wavelength of λ = 580 nm and a reference wavelength of λ = 720 nm (Biotek Power Wave HT, Biotek Instruments, Winooski, VT, USA). The percentage of living cells was calculated by comparing the absorbance value of the tested samples with the absorbance value of the control (cells not treated with compounds). The absorbance of the control was taken as 100%.

Caco-2 = test: MTT cell viability assay; assay type: cell-based, human; settings: 24 h incubation with compound, mean ± SD of three experiments, read-out: Cytotoxic effect, IC50
Method: as §1, §2, §3

HT-29 [1] = test: MTT cell viability assay; assay type: cell-based, human; settings: for IC50: HT-29, 24 h incubation with compound, mean ± SD of three experiments, read-out: Cytotoxic effect, IC50; for IC50 difference, HT-29 vs other cell lines: HT-29, difference of IC50 values, read-out: IC50 in HT-29 higher compared to the other cell lines
Method: as §1, §2, §3

HT-29 [2] = test: Cell cycle analysis via flow cytometry (propidium iodide); assay type: cell-based, human; settings: compound at IC50, 24 h, vs control
Method: The most commonly used fluorescent dyes for cell cycle analysis are fluorochromes that penetrate the cell membrane into the interior of permeabilized cells and bind stoichiometrically to DNA via intercalation, e.g., DAPI, propidium iodide (PI). The analysis is performed on cells fixed in ethanol. In this work, the cell cycle analysis was performed using the method described by Darzynkiewicz and Juan.
Cells (10 × 10^3) were seeded in 35 mm dishes and cultured in the medium for 24 h to attain the logarithmic growth phase. […] Subsequently, cells were trypsinized and centrifuged for 10 min at 400× g at 4 °C. The cell suspension in 100 μL of PBS was fixed in 1 mL of 70% ethanol (−20 °C) and stored at this temperature until analysis. Immediately before analysis, the ethanol-fixed cell suspension was centrifuged at 10,000 rpm for 10 min at 4 °C. The pellet was washed with cold (4 °C) PBS to remove residual ethanol, and the cell suspension was centrifuged again under the same conditions. A volume of 300 μL of PBS containing 4 mg/mL propidium iodide (final concentration 75 μM) and 1 mg/mL RNAse A (final concentration 20 μg/mL) was added to the cell pellet and incubated for at least 30 min at 37 °C in the dark. Stained cells were analyzed using a flow cytometer (Becton Dickinson, Franklin Lakes, NJ, USA), counting 10,000 cells in each sample. Data were analyzed using FlowJo 10.10 software (FlowJo, Williamson Way Ashland, OR, USA).

HT-29 [3] = test: Intracellular GSH level, monochlorobimane (MCB) probe; assay type: cell-based, human; settings: compound at IC50, 24 h, vs control
Method: The spectrofluorimetric method with monochlorobimane (MCB; Sigma-Aldrich; St. Louis, MO, USA) was used to determine GSH. Monochlorobimane reacts with glutathione in a reaction catalyzed by cellular glutathione S-transferase. The reaction produces a fluorescent bimane-glutathione conjugate (GSH-MCB). A major advantage of MCB is its ability to penetrate the cell membrane, which is why it is used as a probe to determine the amount of GSH in living cells.
Cells were seeded in black 96-well fluorometric microplates at a density of 10 × 10^3 cells/mL. […] Following compound incubation, the medium was removed, and the cell monolayers were washed twice with HBSS (140 mM NaCl, 5 mM KCl, 0.8 mM MgCl2, 1.8 mM CaCl2, 1 mM Na2HPO4, 10 mM HEPES, and 1% glucose). A solution of MCB at a final concentration of 40 μM was added to each well and incubated in a CO2 cell culture incubator at 37 °C for 20 min. A 40 mM MCB stock solution was prepared by dissolving 9 mg of the reagent in 1 mL of absolute ethanol. Fluorescence was measured using a Perkin-Elmer LS-5B spectrofluorometer (Waltham, MA, USA) at the following excitation and fluorescence emission wavelengths: λex = 380 nm/λem = 470 nm. After incubation with MCB, the cells were lysed with 50 μL of lysis buffer (10 mM TRIS-HCl; pH 8 containing 0.1% Triton X-100). In order to normalize the number of cells in individual samples, the amount of DNA was determined by adding 50 μL of ethidium bromide (EB, final concentration 0.2 mM) to each well after measuring the MCB fluorescence and measuring the EB fluorescence at an excitation wavelength of λex = 530 nm and an emission wavelength of λem = 590 nm. The results obtained using the standard curve were converted to nM of GSH.

O=C1/C(=C/c2ccccc2)COc2ccccc21 [Compound 1]
IC50 (HCT 116): 10.1 ± 1.3 µM
IC50 (Caco-2; Homo sapiens, Caco-2, 24 h): 10.2 ± 1.8 µM
IC50 (HT-29 [1]; Homo sapiens, HT-29, 24 h): 21.1 ± 1.3 µM
IC50 difference, HT-29 vs other cell lines (HT-29 [1]; Homo sapiens): ~10 µM
Increase in the G2/M phase cell percentage (HT-29 [2]): 25%
Decrease in GSH levels (HT-29 [3]): 25–30%

COc1cccc(/C=C2/C(=O)c3ccccc3OC2c2ccccc2)c1 (centres unmarked) [Compound 3]
IC50 (HCT 116): 18.6 ± 1.4 µM
IC50 (Caco-2): 69.9 ± 5.1 µM
IC50 (Caco-2; Homo sapiens, Caco-2, 24 h): ~70 µM
IC50 (HT-29 [1]): 117 ± 6.1 µM
IC50 (HT-29 [1]; Homo sapiens, HT-29, 24 h): ~115 µM

O=C1/C(=C/c2ccccc2)C(c2ccccc2)Oc2ccccc21 (centres unmarked) [Compound 5]
IC50 (Caco-2): 72.1 ± 1.7 µM
IC50 (Caco-2; Homo sapiens, Caco-2, 24 h): ~70 µM
IC50 (HT-29 [1]; Homo sapiens, HT-29, 24 h): 31.1 ± 1.4 µM
IC50 difference, HT-29 vs other cell lines (HT-29 [1]; Homo sapiens): ~10 µM
Increase in the G2/M phase cell percentage (HT-29 [2]): 25%
Decrease in GSH levels (HT-29 [3]): 25–30%
